Like-named read-outs stand apart in the source and are kept apart here. Where no end group is shown, it is not given here.
What was measured:
[1] = Cytotoxicity assay (MTS); assay type: cell-based; conditions: human, HepG2 cells, read-out: LC50
Protocol: (§1) HepG2 cells were cultured in ATCC-formulated Eagle's Minimum Essential Medium with 10% FBS. A549 cells were grown in ATCC-formulated F-12K Medium containing 10% FBS.

[2] = tested on: E. coli E423-17; assay type: cell-based, Escherichia coli; conditions: E423-17
Protocol: (§2) The following resistant bacterial clinical strains were used in this study: S. aureus USA300 LAC, S. epidermidis 1457, E. coli E423-17, P. aeruginosa E411-17, K. pneumoniae E406-17, and A. baumannii B28-16. While the S. aureus USA300 strain is methicillin-resistant, most of the Gram-negative bacteria contain extended-spectrum beta-lactamase and are resistant to beta-lactam antibiotics. Peptide activity against bacteria was tested using an established lab protocol (Mishra, et al. (2017) Acta Biomater., 49:316-328). In brief, a peptide concentration gradient with twofold dilution was made in the 96-well polystyrene microplate at 10 μL per well. Bacteria were grown to the exponential phase (i.e., optical density at 600 nm≈0.5), diluted to ˜10^5 CFU/mL in different percentages of MHB, TSB, or LB, and partitioned into the 96-well microplate at 90 μL per well. […] They were diluted with autoclaved distilled water to obtain different percentages. The microplates were incubated at 37° C. overnight and read on a ChroMate™ 4300 microplate reader at 600 nm (GMI, Ramsey, MN). The peptide concentration in the wells without bacterial growth is the MIC. As is the convention, MIC values were represented as ranges.
(§3) For pH effects on peptide activity, the pH of the medium was adjusted to a targeted pH for the autoclave and then remeasured at room temperature. For salt and serum effects on peptide activity, stock NaCl solution or human serum was added to the media.
(§4) Peptide activity against bacteria were tested using the CLSI standard procedure with minor modifications (Clinical and Laboratory Standards Institute (2018) Performance standards for antimicrobial susceptibility testing, 9th ed.; Mishra, et al. (2019) Proc. Natl. Acad. Sci., 116(27):13517-13522). In brief, a peptide concentration gradient with twofold dilution was made in the 96-well polystyrene microplate at 10 μL per well. Bacteria were grown to the exponential phase (i.e., optical density at 600 nm≈0.5), diluted to ˜10^5 CFU/mL in MHB, and partitioned into the 96-well microplate at 90 μL per well. The microplates were incubated at 37° C. overnight and read on a ChroMate® 4300 Microplate Reader at 600 nm (GMI, Ramsey, MN). The peptide concentration in the wells without bacterial growth is the minimal inhibitory concentration (MIC). As the convention, MIC values were represented as ranges.
(§5) For pH effects on peptide activity, the pH of the medium was adjusted to a targeted pH for autoclave and then remeasured at room temperature. For salt and serum effects on peptide activity, stock NaCl solution or human serum were added to the media.

[3] = tested on: S. epidermidis 1457; assay: microbe, parasite or virus in culture; assay type: cell-based, Staphylococcus epidermidis; conditions: for MIC: read-out: Antimicrobial activity (MIC) S. epidermidis 1457
Protocol: as §2, §4

[4] = tested on: A. baumannii B28-16; assay type: cell-based, Acinetobacter baumannii; conditions: B28-16
Protocol: as §2, §4

[5] = tested on: S. aureus USA300 LAC; assay: microbe, parasite or virus in culture; assay type: cell-based, Staphylococcus aureus
Protocol: as §2, §3, §4, §5

[6] = tested on: P. aeruginosa E411-17; assay: microbe, parasite or virus in culture; assay type: cell-based, Pseudomonas aeruginosa; conditions: for MIC: read-out: Antimicrobial activity (MIC)
Protocol: as §2, §3, §4, §5

[7] = tested on: human red blood cells; assay: Hemolytic assay; assay type: cell-based; conditions: red cells of human
Protocol: The hemolytic effects of peptides were evaluated using a method with minor modifications (Lakshmaiah Narayana, et al. (2021) ACS Infect. Dis., 7:1795-1808). Human red blood cells (hRBCs, UNMC Blood Bank) were washed (3×) with blood bank saline (isotonic solution 0.90% w/v, Fisher). Cells were diluted to 2% using the saline solution, and aliquots of 90 μL were added to a 96-well polystyrene microplate containing 10 μL of serially diluted peptide solutions. After incubation at 37° C. for 1 hour, plates were centrifuged at 500 g for 5 minutes. Aliquots of the supernatant were transferred to a 96-well microplate. The amount of hemoglobin released was measured at 545 nm by using a ChroMate™ microplate reader. […] HC50 is defined as the concentration of the peptide that caused 50% lysis.
The hemolytic effects of peptides were evaluated (Narayana, et al. (2020) Proc. Natl. Acad. Sci., 117(32):19446-9454). In brief, human red blood cells (UNMC Blood Bank) were washed (3×) and diluted to 2% using the saline solution. Aliquots of 90 μL were mixed with 10 μL of serially diluted peptide solutions. After incubation at 37° C. for 1 hour, plates were centrifuged at 500 g for 5 minutes and aliquots of the supernatant were transferred to a new 96-well microplate to measure the amount of hemoglobin released at 545 nm (relative to 1% Triton® X-100) using a ChroMate® Microplate Reader.

[8] = tested on: K. pneumoniae E406-17; assay type: cell-based, Klebsiella pneumoniae
Protocol: as §2, §4

[9] = tested on: P. aeruginosa E416-17; assay type: cell-based, Pseudomonas aeruginosa
Protocol: as §4

[10] = tested on: human keratinocyte HaCaT cells; assay: Cell viability assay (MTS); assay type: cell-based
Protocol: Human keratinocyte HaCaT cells were grown in DMEM/high glucose (Hyclone, UT) containing 10% fetal bovine serum (Mediatech, Corning, Manassas, VA). […] The mixture was incubated at 37° C. in 5% CO2 for 24 hours.
as §1

[11] = Effect of MHB dilution on antibacterial activity of a panel of antibiotics; assay type: cell-based; conditions: MHB from 100 to 12.5%
Protocol: FIGS. 2A-2D show biofilm disruption activity of human LL-37 (FIGS. 2A and 2B) and 17BIPHE2 (FIGS. 2C and 2D) against the 24 hour preformed biofilms of S. aureus USA300 LAC in different MHB media: 12.5% MHB (FIGS. 2A and 2C) and 100% MHB (FIGS. 2B and 2D). FIGS. 2E-2H show the treatment outcome of LL-37 (FIGS. 2E and 2F) and 17BIPHE2 (FIGS. 2G and 2H) against the 24-hour preformed biofilms of E. coli E423-17 in different MHB media: 12.5% MHB (FIGS. 2E and 2G) and 100% MHB (FIGS. 2F and 2H). […] Growth curves of S. aureus USA 300 LAC (FIGS. 2J-2K) and P. aeruginosa 152 (FIGS. 2L-2M) in 12.5%, 25%, 50% and 100% MHB or TSB medium (curves from bottom to top).
The effects of MHB dilution on the antimicrobial activity of a panel of antibiotics was also compared (FIG. 2I).

[12] = tested on: MRSA USA300; assay: Membrane permeabilization (propidium iodide); assay type: cell-based, Staphylococcus aureus; conditions: Example 1, 1×MIC
Protocol: The peptide ladder was prepared as described for the antibacterial assay with 10 μL of solution in a black COSTAR® 96-well plate. PI (MP Biomedicals, Solon, OH) was prepared in the dark and dissolved in dimethylsulfoxide (Thermo Fisher Scientific, NY) to 20 mM. This PI stock solution was further diluted to 1 mM with water, and 2 μL of 1 mM PI was added to each well. Exponential-phase MRSA USA300 was diluted to OD600 0.11 with TSB, and 88 μL was added to each well. The plate was incubated at 37° C. with continuous shaking in a FLUOstar® Omega (BMG LABTECH, NC) microplate reader. The sample was read every 5 minutes for 24 cycles with excitation and emission wavelengths of 584 and 620 nm, respectively.
Bacterial membrane permeation was conducted (Yeaman, et al. (1998) J. Clin. Invest., 101(1):178-87). In brief, the peptide ladder was prepared as described for the antibacterial assay with 10 μL in a black COSTAR 96-well plate. Propidium iodide (PI) (MP Biomedicals, Solon, OH) was prepared in the dark and dissolved in DMSO (Thermo Fisher Scientific, NY) to 20 mM. This PI stock solution was further diluted to 1 mM with water and 2 μL of 1 mM PI was added to each well. Exponential phase MRSA USA300 or P. aeruginosa E411-17 was diluted to OD600 0.11 with tryptic soy broth (TSB) and 88 μL was added to each well. The plate was incubated at 37° C. with continuous shaking in a FLUOstar® Omega (BMG LABTECH, NC) microplate reader. The sample was read every 5 minutes for 24 cycles with excitation and emission wavelengths at 584 nm and 620 nm, respectively.

[13] = tested on: E. coli E423-17; assay: Membrane permeabilization (propidium iodide); assay type: cell-based, Escherichia coli; conditions: Example 1, 1×MIC
[14] = USA300, pH 6.21, read-out: Antimicrobial activity (MIC)
[15] = USA300, pH 7.22, read-out: Antimicrobial activity (MIC)
[16] = USA300, pH 8.13, read-out: Antimicrobial activity (MIC)
[17] = USA300, read-out: Antimicrobial activity (MIC)

| Substance | CC50 at 24 h [1] | Antimicrobial activity (MIC) E. coli E423-17 [2] | Antimicrobial activity (MIC) A. baumannii B28-16 [4] | MIC [5, 14] | MIC [5, 15] | MIC [5, 16] | MIC [5, 17] | Antimicrobial activity (MIC) P. aeruginosa E411-17 ([6]; E411-17) | MIC ([6]; E411-17, pH 6.21) | MIC ([6]; E411-17, pH 8.13) | Hemolysis (HC10), 10% hemolytic concentration [7] | MIC K. pneumoniae E406-17 [8] | MIC P. aeruginosa E416-17 [9] | other results |
| --- | --- | --- | --- | --- | --- | --- | --- | --- | --- | --- | --- | --- | --- | --- |
| RWWKKWWGK-NH2 [RK-9+] | > 100 µM | 8 µM | >32 µM | >32 µM | 8 µM | 4 µM | 32 µM | 8 to 16 µM | 32 µM | 4 µM | > 400 µM | – | – | MIC [3]: 16 µM; Antimicrobial activity (MIC) ([5]; USA300): 16 to 32 µM; Antimicrobial activity (MIC) S. aureus USA300 ([5]; USA300): 8 to 16 µM; Antimicrobial activity (MIC) ([6]; E411-17, pH 7.22): 8 to 16 µM; MIC ([6]; E411-17): >32 µM |
| KRWWQWWK-NH2 [KR-8+] | 12.5 µM | 4 µM | 16 to 32 µM | >32 µM | 8 µM | 8 µM | 16 µM | 8 µM | 8 µM | 8 µM | 300 µM | – | – | Antimicrobial activity (MIC) S. epidermidis 1457 [3]: 16 to 32 µM; Antimicrobial activity (MIC) ([5]; USA300): 16 to 32 µM; Antimicrobial activity (MIC) S. aureus USA300 ([5]; USA300): 8 to 16 µM; MIC ([6]; E411-17, pH 7.22): 8 µM |
| KWKRFFRGWL-NH2 [RetroLL-10+] | – | – | – | – | – | – | – | – | – | – | – | >32 µM | 4 µM | – |
| KRIWQRWK-NH2 [W540] | – | – | – | – | – | – | – | – | – | – | – | – | – | Activity (MIC) E.coli [2]: >32 µM; Activity (MIC) A. baumannii [4]: >32 µM; Activity (MIC) K. pneumoniae [8]: >32 µM; Activity (MIC) S. aureus ([5]; USA300): >32 µM; Activity (MIC) P. aeruginosa ([6]; E411-17): >32 µM; toxicity to human HaCaT skin cells [10]: more toxic than the other peptides; HC50 (50% hemolysis) [7]: ~150 µM |
| RRWWRWWL-NH2 [W544] | – | – | – | – | – | – | – | – | – | – | – | – | – | Activity (MIC) A. baumannii [4]: 8 to 16 µM; Activity (MIC) K. pneumoniae [8]: 8 to 16 µM; Activity (MIC) P. aeruginosa ([6]; E411-17): 4 µM; toxicity to human HaCaT skin cells [10]: more toxic than the other peptides; HC50 (50% hemolysis) [7]: about 80 μM |
| LWGRFFRKWK-NH2 [LL-10+] | > 100 µM | 32 µM | >32 µM | >32 µM | 16 µM | 4 µM | > 32 µM | 8 to 16 µM | 16 µM | 8 µM | > 400 µM | >32 µM | 8 µM | MIC E. coli E423-17 [2]: 32 µM; MIC [3]: 32 µM; MIC S. aureus USA300 ([5]; USA300): 16 µM; MIC ([5]; USA300, read-out: Antimicrobial activity (MIC) S. aureus USA300): 16 µM; MIC ([6]; E411-17, pH 7.22): 8 µM; MIC ([6]; E411-17): >32 µM |
| Gentamicin | – | – | – | – | – | – | – | – | – | – | – | – | – | change in MIC with dilution of MHB [11]: essentially no changes; membrane permeabilization [12]: no fluorescence increase; Antimicrobial activity (MIC) ([5]; MRSA in MHB, 10% serum): 0.5 to 1 µM; Antimicrobial activity (MIC) ([5]; MRSA in MHB, 20% serum): 0.5 µM; Antimicrobial activity (MIC) ([5]; MRSA in MHB, NaCl (150 mM)): 1 µM; Antimicrobial activity (MIC) ([5]; MRSA in MHB, pH 6.3): 1 to 2 µM; Antimicrobial activity (MIC) ([5]; MRSA in MHB, pH 7.2): 0.5 µM; membrane permeabilization [13]: did not permeate the E. coli membrane |
| VWNRLFRKWR-NH2 [RetroRIK-10++] | – | – | – | – | – | – | – | – | – | – | – | >32 µM | 16 µM | – |

Source: US20250101062A1, “ANTIMICROBIAL PEPTIDES” (Board of Regents of the University of Nebraska, priority 2023, published 2025)
